In experiment [1] the test system is P. falciparum. The following applies: Target pathogen: P. falciparum; Fig. 1A; ref 18–26 (fosmidomycin), 15,27–29 (BITZ, TZLP); cited from earlier work.
Experiment [2] concerns IspD. The settings on record: read-out: Activity on target enzyme: IC50; cited from earlier work.
For experiment [3], the system named is E. coli strain BL21 (DE3) pQEYAEM. Kind of experiment: microbe, parasite or virus in culture. It counts as cell-based. The settings on record: Escherichia coli, Fig. 6A.
Experiment [4] relates to E. coli strain BL21 (DE3) pET22b-H6[…]. Kind of experiment: microbe, parasite or virus in culture. The following applies: Escherichia coli, Fig. 6B. It counts as cell-based.
Experiment [5] concerns IspC. The following applies: Target enzyme: IspC; Fig. 1A; cited from earlier work.
For experiment [6], the system named is IspF. The following applies: read-out: Activity on target enzyme: IC50; cited from earlier work.

≈ marks a conversion by molar mass, not a printed value. A value given as a limit tells only on which side of the number the result lay.

For orientation: EC50 means the concentration giving half of the maximal effect. In general, IC50 refers to the midpoint of a concentration-inhibition curve.

Regarding `Cc1ccc(-n2sc3ccccc3c2=O)cc1S(=O)(=O)N1CCOCC1` [BITZ], in experiment [1], the concentration giving a half-maximal response (EC50) was 4.3 µM. For the same compound, the half-inhibitory concentration (IC50) in experiment [2] is 0.45 µM.

`O=CN(O)CCCP(=O)(O)O` [Fosmidomycin, fosmidomycin, reference compound]: the MIC was 76 ± 14 µM (≈ 13.9 µg/mL) in experiment [3] ([IPTG] 0 mM), above 1000 µM in experiment [3] ([IPTG] 0.5 mM (E. coli IspC overexpression)), 56 ± 8 µM (≈ 10.3 µg/mL) in experiment [4] ([IPTG] 0 mM) and 59 ± 10 µM (≈ 10.8 µg/mL) in experiment [4] ([IPTG] 0.5 mM (MtDXPS overexpression)). Moreover, the 50% effective concentration (EC50) in experiment [1] was 0.98 µM. The IC50 in experiment [5] is 0.35 µM.

With `CCOC(=O)C1=C(C)N=c2s/c(=C\c3cc(Br)c(O)c(Br)c3)c(=O)n2C1c1cccs1` (stereo not shown) [TZLP], in experiment [1], the concentration for a half-maximal effect (EC50) was 1.5 µM. Moreover, in experiment [6], the IC50 is 9.6 µM.
